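Following 48 hours of exposure in 96-well plates, responses at five concentrations were used to interpolate endpoints linearly. Abbreviation: GI50, concentration required for 50% inhibition of growth. TGI denotes the concentration required for complete inhibition of growth.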
Columns and labels:
Assay in all cases: inhibition of tumour cell growth, NCI panel, 48 h
EKVX NSCLC = system: EKVX NSCLC
MDA-N = system: MDA-N
NCI-H460 lung = system: NCI-H460 lung
OVCAR-8 ovarian = system: OVCAR-8 ovarian
RPMI-8226 leukemia = system: RPMI-8226 leukemia
SF-268 CNS = system: SF-268 CNS
SK-MEL-2 melanoma = system: SK-MEL-2 melanoma
SNB-75 CNS = system: SNB-75 CNS
BT-549 breast = system: BT-549 breast
CAKI-1 renal = system: CAKI-1 renal

| SMILES | TGI (EKVX NSCLC) | TGI (MDA-N) | TGI (NCI-H460 lung) | TGI (OVCAR-8 ovarian) | TGI (RPMI-8226 leukemia) | TGI (SF-268 CNS) | TGI (SK-MEL-2 melanoma) | TGI (SNB-75 CNS) | GI50 (BT-549 breast) | TGI (BT-549 breast) | GI50 (CAKI-1 renal) | TGI (CAKI-1 renal) | GI50 (EKVX NSCLC) | GI50 (NCI-H460 lung) | GI50 (OVCAR-8 ovarian) | GI50 (RPMI-8226 leukemia) | GI50 (SF-268 CNS) | GI50 (SK-MEL-2 melanoma) | GI50 (SNB-75 CNS) |
| --- | --- | --- | --- | --- | --- | --- | --- | --- | --- | --- | --- | --- | --- | --- | --- | --- | --- | --- | --- |
| CC1(C)CCC(C)(C)C1C(=O)NC(O)C(=O)O (stereo unspecified) | > 100 µM | > 100 µM | > 100 µM | > 100 µM | > 100 µM | > 100 µM | > 100 µM | > 100 µM |  |  |  |  |  |  |  |  |  |  |  |
| COc1cc(OC)cc(-c2n/c(=C\c3c(O)[nH]c4ccc(OC)cc34)cc3c2=Nc2ccccc2-3)c1 | 80.9 µM |  | 5.62 µM | 32.4 µM | 72.7 µM | 41.2 µM | 37.3 µM | 34.3 µM | 2.19 µM | 4.7 µM | > 100 µM | > 100 µM | 25.2 µM | 2.36 µM | 12.1 µM | 8.88 µM | 10.2 µM | 20.8 µM | 18.5 µM |
| CCCCCCCCCCCCCCCCOP(=O)(O)OCC(N)C(=O)O (stereo unspecified) | > 100 µM | 43.1 µM | 51.8 µM | > 100 µM | 47.9 µM | 41.6 µM | 40.5 µM | 45.7 µM |  |  |  | 28 µM |  |  |  |  |  |  |  |
| COC(=O)c1c(C#N)c(N)nc2c1CCC2 | > 100 µM | > 100 µM | > 100 µM | > 100 µM | > 100 µM | > 100 µM | > 100 µM |  |  | > 100 µM |  | > 100 µM |  |  |  |  |  |  |  |
| CCOC(=O)C(Cc1c[nH]c2cc([N+](=O)[O-])ccc12)NS(=O)(=O)c1ccc2ccccc2c1 (stereo unspecified) | 78.1 µM |  | 35.5 µM | 55.7 µM | > 100 µM | 43.5 µM | 35.1 µM | 50.4 µM |  |  |  |  |  |  |  |  |  |  |  |
| c1csc(-c2ccsc2-c2cccs2)c1 | > 100 µM | > 100 µM | > 100 µM | > 100 µM | 66.8 µM | > 100 µM |  | > 100 µM |  |  |  | > 100 µM |  |  |  |  |  |  |  |
| O=C(CSc1nc(-c2ccccc2)c(-c2ccccc2)[nH]1)N/N=C/c1ccc(O)cc1 | 84.4 µM |  | 44.8 µM | 48 µM | 60.6 µM | 88.5 µM | 67.2 µM | 52.7 µM |  |  |  |  |  |  |  |  |  |  |  |
| O=C(NC(=O)c1cc(-c2ccccc2)n[nH]1)c1ccccc1 | > 100 µM | > 100 µM | > 100 µM | > 100 µM |  | > 100 µM | > 100 µM | > 100 µM |  | > 100 µM |  | > 100 µM |  |  |  |  |  |  |  |
| O=C(Nc1cccc([N+](=O)[O-])c1)c1n[nH]n(-c2cccc([N+](=O)[O-])c2)c1=O | > 100 µM | > 100 µM |  | > 100 µM | > 100 µM | > 100 µM | > 100 µM | > 100 µM |  |  |  | > 100 µM |  |  |  |  |  |  |  |
| Cc1ccc(C2=C(C#N)C(N)OC3=C2COc2ccccc23)cc1 (stereo unspecified) | 37.4 µM | > 100 µM | > 100 µM |  | > 100 µM | 85.9 µM | > 100 µM |  |  | > 100 µM |  |  |  |  |  |  |  |  |  |
| CC1CC/C(=C\c2ccc(F)cc2)C(=O)/C1=C/c1ccc(F)cc1 (stereo unspecified) | 17.9 µM | 13.5 µM |  | 9.14 µM | 5.52 µM | 14.6 µM | 25.6 µM | 11.7 µM |  | 10.1 µM |  | 12.1 µM |  |  |  |  |  |  |  |
| Clc1ccc(-c2cn3c(nc4ccccc43)c(/C=C/c3ccco3)n2)cc1 |  | > 100 µM | > 100 µM |  | 39.8 µM | > 100 µM | 41.6 µM | 83.5 µM |  | > 100 µM |  |  |  |  |  |  |  |  |  |
| CC(O)(P(=O)(O)O)P(=O)(O)OCC(O)CN1CCOCC1 (stereo unspecified) | > 100 µM | > 100 µM | > 100 µM | > 100 µM | > 100 µM | > 100 µM |  |  |  | > 100 µM |  | > 100 µM |  |  |  |  |  |  |  |
| COc1ccc([C@@H]2CC(=O)N2)cc1 | > 100 µM |  | > 100 µM | > 100 µM | > 100 µM | > 100 µM | > 100 µM | > 100 µM |  |  |  | > 100 µM |  |  |  |  |  |  |  |
| O=C1CC[C@@]2(O)[C@H]3Cc4ccc(-c5ccccc5)c5c4[C@@]2(CCN3CC2CC2)[C@H]1O5 | 52.3 µM | 32.9 µM | 35.5 µM | 32.4 µM | 47.8 µM | 29.7 µM | 33.7 µM |  |  | 31.3 µM |  | 36.7 µM |  |  |  |  |  |  |  |
| COC(=O)c1c(O)ccc2[nH]c3c(O)c4ccccc4cc3c12 | 39.6 µM | 65 µM | 63.5 µM | 48.9 µM | 44.7 µM | 54.7 µM | 55 µM |  |  | > 100 µM |  | 45.9 µM |  |  |  |  |  |  |  |
| COC1=CC(=O)CC(C)C12Oc1c(Cl)c(OC)cc(OC)c1C2=O (stereo unspecified) | > 100 µM |  | > 100 µM | > 100 µM | > 100 µM | > 100 µM | > 100 µM | 28.5 µM |  | > 89 µM |  | 84.9 µM |  |  |  |  |  |  |  |
| CCOC(=O)NC(OC)(C(F)(F)F)C(F)(F)F | > 100 µM | > 100 µM | > 100 µM | > 100 µM | > 100 µM | > 100 µM |  | > 100 µM |  | > 100 µM |  | > 100 µM |  |  |  |  |  |  |  |
| O=C(O)c1cnc(-n2[nH]c3c(c2=O)CCCC3)[nH]c1=O | > 100 µM | > 100 µM | > 100 µM | > 100 µM | > 100 µM | > 100 µM | > 100 µM |  |  | > 100 µM |  | > 100 µM |  |  |  |  |  |  |  |
| C=C1C(O)C[C@H](OC(C)=O)[C@]2(C)C1C(OC(C)=O)[C@]1(C(C)(C)O)CC(O)C(C)=C1[C@@H](OC(=O)c1ccccc1)C2OC(C)=O (stereo partly specified) | > 10 µM | > 10 µM | > 10 µM | > 10 µM | > 10 µM | > 10 µM | > 10 µM | > 10 µM |  |  |  | > 10 µM |  |  |  |  |  |  |  |
| O=C(c1ccc(Cl)cc1)N(C(=S)N1CCN(c2ccccn2)CC1)C1CCCCC1 |  |  | > 100 µM | > 100 µM | > 100 µM | > 100 µM | > 100 µM | > 100 µM |  |  |  | > 100 µM |  |  |  |  |  |  |  |
| C/C=C1\CN(C(=O)OC(C)(C)C)C1C(=O)OC(C)(C)C (stereo unspecified) | > 100 µM | > 100 µM | > 100 µM | > 100 µM | > 100 µM | > 100 µM | > 100 µM |  |  | > 100 µM |  | > 100 µM |  |  |  |  |  |  |  |
| O=C(CCC=C(S(=O)(=O)c1ccccc1)S(=O)(=O)c1ccccc1)c1ccccc1 | 30.5 µM | 14.8 µM | 33.8 µM | 16.7 µM |  | 18.8 µM | 9.7 µM | 9.57 µM |  | 18.2 µM |  | 31.1 µM |  |  |  |  |  |  |  |
